pIC50: −log10 of the molar value. Structures can show the parent of a compound that is named as a salt.
Target: IRAK-4 (Homo sapiens (Human), UniProt Q9NWZ3)
Assay: In vitro IRAK-4 kinase assay
Type: biochemical
Settings: purified recombinant IRAK-4, 50 uM ATP, 33P peptide phosphorylation
Protocol: Purified recombinant IRAK-4 protein was incubated with 250 uM synthetic peptide ([…]) in 30 ul of kinase buffer including (20 mM MOPS pH7.2, 25 mM beta glycerol phosphate, 5 mM EGTA, 1 mM sodium orthovanadate, 1 mM DTT, 50 uM ATP, 20 mM MgCl2, 10 uCi γ-^33P, 0.1% BSA) for the indicated time. For purified recombinant IRAK-1 protein kinase assay, 50 uM ATP was used. A 25 ul aliquot of the reaction mixture was transferred on to p81 phosphocellulose squares (Upstate Biotechnology, Lake Placid, N.Y.). The assay squares were washed three times with 0.75% phosphoric acid and once with acetone. Enzyme activity was measured by determining the bound radioactivity by liquid scintillation counting.

Sequence of IRAK-4 (Q9NWZ3 whole entry, species assumed): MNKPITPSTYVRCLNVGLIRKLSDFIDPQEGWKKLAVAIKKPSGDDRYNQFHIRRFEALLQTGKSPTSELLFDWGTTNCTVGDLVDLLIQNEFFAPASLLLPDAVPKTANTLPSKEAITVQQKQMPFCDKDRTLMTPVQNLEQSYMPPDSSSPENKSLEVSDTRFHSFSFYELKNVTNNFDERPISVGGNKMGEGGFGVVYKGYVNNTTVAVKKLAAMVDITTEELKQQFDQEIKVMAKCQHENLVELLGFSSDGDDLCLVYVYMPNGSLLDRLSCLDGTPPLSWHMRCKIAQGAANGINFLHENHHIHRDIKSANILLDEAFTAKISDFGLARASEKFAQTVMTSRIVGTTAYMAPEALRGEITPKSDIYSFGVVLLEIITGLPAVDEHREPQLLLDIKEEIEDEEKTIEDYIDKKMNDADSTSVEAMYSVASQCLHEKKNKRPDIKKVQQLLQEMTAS

| pIC50 | SMILES |
| --- | --- |
| 5.46 | COc1ccc(Cl)cc1NC(=O)c1csc2cccnc12 [Example 150, Thieno[3,2-beta]pyridine-3-carboxylic acid (5-chloro-2-methoxy-phenyl)-amide] |
| 6.51 | O=C(Nc1cc(Cl)ccc1OC1CCC(CO)C1)c1cnn2cccnc12 (stereo not drawn) [Example 77, Pyrazolo[1,5-alpha]pyrimidine-3-carboxylic acid [5-chloro-2-(3-hydroxymethyl-cyclopentyloxy)-phenyl]-amide] |
| 5.83 | NC1CCC(Oc2ccc(Cl)cc2NC(=O)c2csc3cncnc23)CC1 (centres unmarked) [Example 118, Thieno[3,2-d]pyrimidine-7-carboxylic acid [2-(4-amino-cyclohexyloxy)-5-chloro-phenyl]-amide] |
| 5.11 | COc1ccc(NC(C)=O)cc1NC(=O)c1cnn2cccnc12 [Example 173, Pyrazolo[1,5-alpha]pyrimidine-3-carboxylic acid (5-acetylamino-2-methoxy-phenyl)-amide] |
| 6.64 | COc1cc2[nH]ncc2cc1NC(=O)c1cnn2cccnc12 [Example 69, Pyrazolo[1,5-alpha]pyrimidine-3-carboxylic acid (6-methoxy-1H-indazol-5-yl)-amide] |
| 5.65 | O=C(Nc1cc(Cl)ccc1Oc1ccc(O)cc1)c1cnn2cccnc12 [Example 130, Pyrazolo[1,5-alpha]pyrimidine-3-carboxylic acid [5-chloro-2-(4-hydroxy-phenoxy)-phenyl]-amide] |
| 6.32 | O=C(Nc1cc(Cl)ccc1N1CCCC(O)C1)c1cnn2cccnc12 (stereo not drawn) [Example 91, Pyrazolo[1,5-alpha]pyrimidine-3-carboxylic acid [5-chloro-2-(3-hydroxy-piperidin-1-yl)-phenyl]-amide] |
| 5.99 | O=C(Nc1cccc(NCCO)c1N1CCCCC1)c1cnn2cccnc12 [Example 114, Pyrazolo[1,{tildeover (5)}alpha] pyrimidine-3-carboxylic acid [3-(2-hydroxy-ethylamino)-2-piperidin-1-yl-phenyl]-amide] |
| 7.09 | NCc1ccc(-c2ccc(Cl)cc2NC(=O)c2cnn3cccnc23)cc1 [Example 46, Pyrazolo[1,{tildeover (5)}alpha] pyrimidine-3-carboxylic acid (4′-aminomethyl-4-chloro-biphenyl-2-yl)-amide] |
| 6.90 | COc1cc2ncccc2cc1NC(=O)c1csc2cnc(N(CCO)C(C)C)nc12 [Example 57, 2-[(2-Hydroxy-ethyl)-isopropyl-amino]-thieno[3,2-d]pyrimidine-7-carboxylic acid (7-methoxy-quinolin-6-yl)-amide] |
| 5.08 | COc1ccc(CCCO)cc1NC(=O)c1cnn2cccnc12 [Example 176, Pyrazolo[1,5-alpha]pyrimidine-3-carboxylic acid [5-(3-hydroxy-propyl)-2-methoxy-phenyl]-amide] |
| 6.54 | CC(C)Oc1ccc(Cl)cc1NC(=O)c1csc2cncnc12 [Example 74, Thieno[3,2-d]pyrimidine-7-carboxylic acid (5-chloro-2-isopropoxy-phenyl)-amide] |
| 7.28 | Cc1cc2cc(-c3ccc(CO)cc3)c(NC(=O)c3cnn4cccnc34)cc2[nH]1 [Example 36, Pyrazolo[1,5-alpha]pyrimidine-3-carboxylic acid [5-(4-hydroxymethyl-phenyl)-2-methyl-1H-indol-6-yl]-amide] |
| 6.37 | O=C(Nc1cc(Cl)ccc1OCCCO)c1cnn2cccnc12 [Example 84, Pyrazolo[1,5-alpha]pyrimidine-3-carboxylic acid [5-chloro-2-(3-hydroxy-propoxy)-phenyl]-amide] |
| 5.23 | CCc1ccc(OC)c(NC(=O)c2cnn3cccnc23)c1 [Example 166, Pyrazolo[1,5-alpha]pyrimidine-3-carboxylic acid (5-ethyl-2-methoxy-phenyl)-amide] |
| 6.36 | COc1cc2ncccc2cc1NC(=O)c1csc2cnc(N(C)C(C)C)nc12 [Example 85, 2-(Isopropyl-methyl-amino)-thieno[3,2-d]pyrimidine-7-carboxylic acid (7-methoxy-quinolin-6-yl)-amide] |
| 6.32 | O=C(Nc1cc(Cl)ccc1OC1CCNCC1)c1cnn2cccnc12 [Example 92, Pyrazolo[1,5-alpha]pyrimidine-3-carboxylic acid [5-chloro-2-(piperidin-4-yloxy)-phenyl]-amide hydrochloride] |
| 5.58 | O=C(Nc1cc(Cl)ccc1OCc1cccc(O)c1)c1cnn2cccnc12 [Example 141, Pyrazolo[1,5-alpha]pyrimidine-3-carboxylic acid [5-chloro-2-(3-hydroxy-benzyloxy)-phenyl]-amide] |
| 6.57 | COc1cc2ncccc2cc1NC(=O)c1csc2cnc(NCC(C)C)nc12 [Example 73, 2-Isobutylamino-thieno[3,2-d]pyrimidine-7-carboxylic acid (7-methoxy-quinolin-6-yl)-amide] |
| 5.69 | O=C(Nc1cc(Cl)ccc1-c1cccc(O)c1)c1cnn2cccnc12 [Example 125, Pyrazolo[1,5-alpha]pyrimidine-3-carboxylic acid (4-chloro-3′-hydroxy-biphenyl-2-yl)-amide] |
| 6.86 | O=C(Nc1cc(Cl)ccc1OC1CCC(O)CC1)c1cnn2cc(Br)cnc12 (stereo not drawn) [Example 61, 6-Bromo-pyrazolo[1,5-alpha]pyrimidine-3-carboxylic acid [5-chloro-2-(4-hydroxy-cyclohexyloxy)-phenyl]-amide] |
| 6.10 | COc1cc2cc[nH]c2cc1NC(=O)c1cnn2cccnc12 [Example 110, Pyrazolo[1,5-alpha]pyrimidine-3-carboxylic acid (5-methoxy-1H-indol-6-yl)-amide] |
| 6.19 | COc1cc(C(=O)NCCCO)ccc1NC(=O)c1cnn2cccnc12 [Example 105, Pyrazolo[1,5-alpha]pyrimidine-3-carboxylic acid [4-(3-hydroxy-propylcarbamoyl)-2-methoxy-phenyl]-amide] |
| 6.32 | O=C(Nc1cc(Cl)ccc1-c1ccc(O)cc1)c1cnn2cccnc12 [Example 94, Pyrazolo[1,5-alpha]pyrimidine-3-carboxylic acid (4-chloro-4′-hydroxy-biphenyl-2-yl)-amide] |
| 6.31 | O=C(Nc1cc(Cl)ccc1N1CCC(O)C1)c1cnn2cccnc12 (stereo not drawn) [Example 95, Pyrazolo[1,5-alpha]pyrimidine-3-carboxylic acid [5-chloro-2-(3-hydroxy-pyrrolidin-1-yl)-phenyl]-amide] |
| 7.01 | O=C1Cc2cc(N3CCCCC3)c(NC(=O)c3cnn4cccnc34)cc2N1 [Example 48, Pyrazolo[1,5-alpha]pyrimidine-3-carboxylic acid (2-oxo-5-piperidin-1-yl-2,3-dihydro-1H-indol-6-yl)-amide] |
| 6.13 | CN(C)c1ccc(Cl)cc1NC(=O)c1cnn2cccnc12 [Example 108, Pyrazolo[1,5-alpha]pyrimidine-3-carboxylic acid (5-chloro-2-dimethylamino-phenyl)-amide] |

| SMILES | pIC50 |
| --- | --- |
| CC(C)COc1ccc(Cl)cc1NC(=O)c1cnn2cccnc12 [Example 135, Pyrazolo[1,5-alpha]pyrimidine-3-carboxylic acid (5-chloro-2-isobutoxy-phenyl)-amide] | 5.64 |
| O=C(Nc1cc(Cl)ccc1OCCCCO)c1cnn2cccnc12 [Example 87, Pyrazolo[1,5-alpha]pyrimidine-3-carboxylic acid [5-chloro-2-(4-hydroxy-butoxy)-phenyl]-amide] | 6.36 |

Source: patent publication US9255110B2 (Hoffmann-La Roche Inc., priority 2010, dated 2016)
